Source: publication PMC10732398 (PLOS Pathogens, 2023)

Test system: ⍺4β7
Assay: SPR: inhibition by linear peptides of soluble ⍺4β7 binding to a MAdCAM-Ig surface
Conditions: Fig 7F, 7G
From the text: To determine if this is the case, we employed an SPR -based assay. Biosensor surfaces were coated with either CD4 D1D2 or a 42 aa cyclic V2 peptide derived from the subtype E 92TH023 gp120 (cV2 92TH023). A third surface coated with MAdCAM-Ig was employed as a positive control. Soluble ⍺4β7 was passed over these surfaces. We then evaluated the capacity of staggered 15 aa peptides that span either CD4 D2 or gp120 V2 to inhibit this interaction (Fig 7A).
Fig 7 Reciprocal inhibition of gp120 V2 and CD4 binding to ⍺4β7 by D2 and V2 peptides. SPR measurements of soluble ⍺4β7 (analyte) binding to biosensor surfaces coated with CD4 D1D2, 92TH023 cyclic peptide, or MAdCAM-Ig in the absence or presence of either CD4 D2 or gp120 V2 peptides, as indicated. (A) List of overlapping 15 aa peptides corresponding to residues 157–187 of CD4 and residues 158–192 of gp120 V2 (subtype B consensus sequence). (B) Binding of ⍺4β7 to sCD4 D1D2 +/- CD4 D2 peptides. X-axis indicates ⍺4β7 mass bound (RU) at the end of the association phase. (C) Binding of ⍺4β7 to 92TH023 +/- gp120 V2 peptides. (D) Binding of ⍺4β7 to sCD4 D1D2 +/- gp120 V2 peptides. (E) Binding of ⍺4β7 to 92TH023 +/- CD4 D2 peptides. […]
Experiments were performed using a Biacore 3000 instrument (Cytiva Life Sciences) using CM4 or CM5 sensor chips. The data were evaluated using BIAevaluation 4.1.1 software (Cytiva Life Sciences). […]

Sequence: QKKVEFKIDIVVLA [CD4 P42, linear CD4 D2 peptide, residues 165-178, G β-strand]
- inhibition of MAdCAM-Ig binding to ⍺4β7 (in words): inhibit MAdCAM-Ig binding to ⍺4β7
